Measured values as given in patent US20220411362A1, “DITERPENOID COMPOUNDS THAT ACT ON PROTEIN KINASE C (PKC)” (K-Gen, Inc., priority 2019, published 2022).
Where two headings read alike, the source gives them in different places.

What was measured:
[1] = target: T1, C1b domain of human PKD1 (PKCμ) (Homo sapiens, UniProt Q15139); assay: biochemical; format: binding
T1 construct: Genes encoding C1b domains of human PKCα, δ, ε, θ, and PKD1 (PKCμ) were synthesized; made in house; host or cells: E. coli BL21(DE3)
T1 sequence (Q15139 270-320 limits assumed): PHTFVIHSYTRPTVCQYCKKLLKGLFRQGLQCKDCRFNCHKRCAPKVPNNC
Method: (§1) Compounds described in this disclosure were tested for binding affinity to C1b domain of PKC isoforms. Compound binding affinity to C1b domain of PKC isoforms was derived from competitive binding assay using radioactive tracer ^3H-PDBu and recombinant GST-C1b or full-length of human PKC proteins based on modified procedures from Methods in Molecular Biology, vol.
(§2) Genes encoding C1b domains of human PKCα, δ, ε, θ, and PKD1 (PKCμ) were synthesized and inserted into pGEX-2TK or pGEX-4T1 vectors for expression and production of GST-C1b proteins in E. coli BL21(DE3) via IPTG induction. The target proteins were purified by glutathione sepharose 4B and followed by ion exchange chromatography if needed to achieve purity >70%. Aliquots of the purified proteins were stored at −80 degree for binding assay (storage buffer: 20 mM Tris pH 8.0, 200 mM NaCl, 10% glycerol, 1 mM DTT).
(§3) The plate was incubated at 37° C. on a shaker at 300 rpm for 10 minutes and then put on ice for 20 minutes. […] The bottom of the filter plate was sealed and 50 μL of MicroScint-20 (PerkinElmer) cocktail was added to each well. ^3H-PDBu trapped in each well was counted using PerkinElmer MicroBeta2 Reader. Data were analyzed using GraphPad Prism5 with the model “log(inhibitor) vs. response-variable slope” to fit the IC50, and then IC50 was transformed to Ki using Cheng-Prusoff equation: Ki=IC50/(1+added radio ligand/Kd). Kd is the binding affinity of each protein preparation to ^3H-PDBu, determined experimentally.

[2] = tested on: A549 non-small cell lung cancer cell line; assay: Proliferation of A549 (CellTiter Glo); format: cell-based; settings: read-out: IC50 μM (A549 Cell Line)
Method: The diterpenoid compounds were tested in A549, a non-small cell lung cancer cell line harboring a K-Ras activating mutation. Briefly, A549 cells at a density of 1,000 cells/well were seeded in 96-well plates and incubated at 37° C. for 24 hours. A series of different concentrations of compound stocks (500×) were prepared by 3-fold serial dilution in DMSO. These compounds were further diluted in culture media and then added to cells so that the final DMSO concentration was not exceeding 0.25%. After 96 hours of incubation, 50 μL of CellTiter Glo reagent (Promega) was added to each well and luminescence was measured after 10 minutes using EnVision (PerkinElmer). Luminescence from cells treated with DMSO alone was set as Max and % of inhibition was calculated as follows: Inhibition %=(Max−Sample value)/Max×100. Data was analyzed using XL-fit software (ID Business Solutions Ltd.) and IC50, relative IC50, and % of top inhibition was calculated. Some of the compounds in this disclosure were very potent in blocking proliferation of A549 lung cancer cells at low nM range. In addition, potency of inhibiting A549 proliferation correlated well with its binding affinity to PKCs for this series of compounds. In other words, higher affinity binders had stronger inhibitory effects on A549 proliferation. This further support the notion that activation, rather than inhibition, of certain PKC isoforms is required to block proliferation of cancer cells, some of which may harbor K-Ras mutations. This is in sharp contrast to previous literature and common belief that inhibition of PKC is necessary to block cancer cell growth (Kang, 2014, New Journal of Science, 2014:1-36). Data presented here is in agreement with recent findings that many loss-of-function but not gain-of-function mutations of PKC isoforms have been identified in many human cancers (Antal et al., 2015, Cell, 160:489-502).

C1b domain of human PKCα = target: T2, C1b domain of human PKCα (Homo sapiens, UniProt P17252); assay: biochemical; format: binding; settings: 3H-PDBu competition
T2 construct: Genes encoding C1b domains of human PKCα, δ, ε, θ, and PKD1 (PKCμ) were synthesized; made in house; host or cells: E. coli BL21(DE3)
Method: as §1, §2
The plate was incubated at 37° C. on a shaker at 300 rpm for 10 minutes and then put on ice for 20 minutes. […] The bottom of the filter plate was sealed and 50 μL of MicroScint-20 (PerkinElmer) cocktail was added to each well. ^3H-PDBu trapped in each well was counted using PerkinElmer MicroBeta2 Reader. […] Kd is the binding affinity of each protein preparation to ^3H-PDBu, determined experimentally.

C1b domain of human PKCδ = target: T3, C1b domain of human PKCδ (Homo sapiens, UniProt Q05655); assay: Competitive 3H-PDBu binding to C1b domain of PKCδ; settings: 3H-PDBu competition
T3 construct: Genes encoding C1b domains of human PKCα, δ, ε, θ, and PKD1 (PKCμ) were synthesized; made in house; host or cells: E. coli BL21(DE3)
T3 sequence (Q05655 230-280 limits assumed): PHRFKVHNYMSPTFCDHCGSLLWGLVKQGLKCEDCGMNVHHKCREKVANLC
Method: as §1, §2, §3

Row | Structure (SMILES) | Ki [1] | IC50 ([2]; Homo sapiens, A549, 96 h) | Ki (C1b domain of human PKCα; Ki PKCα) | Ki (C1b domain of human PKCδ; Ki PKCδ) | Ki ([1]; read-out: Ki PKD1/PKCμ) | IC50 ([2]; A549, 96 hours incubation, CellTiter Glo) | Ki (C1b domain of human PKCα; read-out: Ki PKCα) | Ki (C1b domain of human PKCδ; read-out: Ki PKCδ)
1 | CCCC[C@H](N)C(=O)O[C@@]12C[C@@H](C)[C@@]3(O)[C@@H](C=C(CO)C[C@]4(O)C(=O)C(C)=C[C@@H]34)[C@@H]1C2(C)C [Compound K101-C1317] | < 5 nM | 0.6 to 1 µM | 800 to 1000 nM | 1 to 30 nM |  |  |  | 
2 | CC1=C[C@H]2[C@@]3(O)[C@H](C)C[C@]4(OC(=O)CCc5scnc5C)[C@H]([C@@H]3C=C(CO)C[C@]2(O)C1=O)C4(C)C [Compound K101-C1320] | 1 to 30 nM | 0.2 to 0.6 µM | 2000 to 4000 nM | 30 to 60 nM |  |  |  | 
3 | CC1=C[C@H]2[C@@]3(O)[C@H](C)C[C@]4(OC(=O)CCc5c[nH]c6ncccc56)[C@H]([C@@H]3C=C(CO)C[C@]2(O)C1=O)C4(C)C [Compound K101-C1322] | 5 to 10 nM | 2 to 5 µM | 800 to 1000 nM | 30 to 60 nM |  |  |  | 
4 | CC1=C[C@H]2[C@@]3(O)[C@H](C)C[C@]4(OC(=O)CCc5cnn(C)c5)[C@H]([C@@H]3C=C(CO)C[C@]2(O)C1=O)C4(C)C [Compound K101-C1323] | 100 to 200 nM | 2 to 5 µM | > 8000 nM | 200 to 400 nM |  |  |  | 
5 | CC1=C[C@H]2[C@@]3(O)[C@H](C)C[C@]4(OC(=O)[C@@H](N)CC5CCC5)[C@H]([C@@H]3C=C(CO)C[C@]2(O)C1=O)C4(C)C [Compound K101-C1325] | 30 to 60 nM | 1 to 2 µM | 4000 to 6000 nM | 30 to 60 nM |  |  |  | 
6 | CC1=C[C@H]2[C@@]3(O)[C@H](C)C[C@]4(OC(=O)[C@@H](N)CCS(C)(=O)=O)[C@H]([C@@H]3C=C(CO)C[C@]2(O)C1=O)C4(C)C [Compound K101-C1326] | 200 to 400 nM | > 30 µM | > 8000 nM | 400 to 800 nM |  |  |  | 
7 | CC1=C[C@H]2[C@@]3(O)[C@H](C)C[C@]4(OC(=O)[C@@H](N)CC(C)(C)C)[C@H]([C@@H]3C=C(CO)C[C@]2(O)C1=O)C4(C)C [Compound K101-C1328] | < 5 nM | 0.2 to 0.6 µM | 200 to 400 nM | 1 to 30 nM |  |  |  | 
8 | CC1=C[C@H]2[C@@]3(O)[C@H](C)C[C@]4(OC(=O)[C@@H](N)CC5CC5)[C@H]([C@@H]3C=C(CO)C[C@]2(O)C1=O)C4(C)C [Compound K101-C1330] | 30 to 60 nM | 2 to 5 µM | 1000 to 2000 nM |  |  |  |  | 
9 | CC1=C[C@H]2[C@@]3(O)[C@H](C)C[C@]4(OC(=O)[C@@H](N)C/C=C/c5ccccc5)[C@H]([C@@H]3C=C(CO)C[C@]2(O)C1=O)C4(C)C [Compound K101-C1331] |  |  |  |  | < 5 nM | 0.06 to 0.1 µM | 100 to 200 nM | 5 to 10 nM
10 | CC1=C[C@H]2[C@@]3(O)[C@H](C)C[C@]4(OC(=O)[C@@H](N)CC5CCCC5)[C@H]([C@@H]3C=C(CO)C[C@]2(O)C1=O)C4(C)C [Compound K101-C1332] | 5 to 10 nM | 0.1 to 0.2 µM | 100 to 200 nM | 5 to 10 nM |  |  |  | 
11 | CC1=C[C@H]2[C@@]3(O)[C@H](C)C[C@]4(OC(=O)CCCCCCCCCCC(=O)O)[C@H]([C@@H]3C=C(CO)C[C@]2(O)C1=O)C4(C)C [Compound K101-C1334] | 30 to 60 nM | 10 to 30 µM | > 8000 nM | 400 to 800 nM |  |  |  | 
12 | CC1=C[C@H]2[C@@]3(O)[C@H](C)C[C@]4(OC(=O)CCCCCCCCCCCC(=O)O)[C@H]([C@@H]3C=C(CO)C[C@]2(O)C1=O)C4(C)C [Compound K101-C1335] |  | 10 to 30 µM | > 8000 nM | 200 to 400 nM |  |  |  | 
13 | CSCC[C@H](N)C(=O)O[C@@]12C[C@@H](C)[C@@]3(O)[C@@H](C=C(CO)C[C@]4(O)C(=O)C(C)=C[C@@H]34)[C@@H]1C2(C)C [Compound K101-C1338] | 30 to 60 nM | 5 to 10 µM | 2000 to 4000 nM | 100 to 200 nM |  |  |  | 
